Values of other authors, collected in patent US5238927A (priority 1992, dated 1993).

Settings: in vivo

NC(=O)c1cc[n+](COC[n+]2ccccc2C=NO)cc1 [HI-6, 1-(2-hydroxyiminomethylpyridinium)-2-(4-carboxyamidopyridinium)-dimethyl ether dichloride]
effectiveness as antidote in the treatment of organophosphorus toxin nerve poisoning: most effective known antidote
